In patent US12162850B2, “Formulations” (Betagenon AB, priority 2019, dated 2024):

Assays:
[1] = Particle size analysis of dry-milled products (laser diffraction, Shimadzu SALD-2300); format: physicochemical
Experimental: Milling was performed for Examples 1a to 1c using an air jet mill (Equipment code: CP-AJM-01; Promas engineers) with the following parameters: Micronisation was repeated in all examples by performing the air jet milling for a second time using the same parameters. This allowed the particle size D90 to be reduced to less than 10 μm. [table] Four drops of Tween 20 were added to 25 mL of water and the mixture was sonicated for 3 minutes to form the dispersant solution. 0.05 g of milled material was transferred into a 250 mL glass beaker. 25 mL of the dispersant solution (Tween 20/water mixture) was added to the beaker with continuous swirling for 2 to 3 minutes. The suspension was transferred into the measuring unit and the particle size distribution measurements were conducted in triplicate.

[2] = Single dose oral pharmacokinetic studies in rabbits; format: in vivo, male New Zealand White rabbits; settings: for Plasma concentration, mean: 90 mg/kg b.w. oral; for Cmax / MRT last / Tmax / AUC(0-t) / AUC(0-inf) / half-life: male, New Zealand White, plasma, po
Experimental: The studies detailed below (and referred to as Examples 2 to 8) were conducted to provide comparative single dose oral pharmacokinetics data for Compound 1, as well as sodium and potassium salts of that compound, using non-coated and enteric-coated capsules in male New Zealand White rabbits.
Compound 1 was made using the process described in WO 2011/004162 and milled as described for Example 1c. The non-coated or enteric coated gelatin capsules were individually filled with 180 mg of dry-milled Compound 1 together with accompanying excipients as indicated. Both capsule types were filled with Compound 1 together with 1.8 mg of sodium docusate, 0.18 mg of PVP K30 and 9 mg of mannitol.
Similarly, Compound 2, non-coated or enteric coated gelatin capsules were individually filled with 180 mg of dry-milled Compound 2 (as obtained in Example 1f) together with 1.8 mg of sodium docusate, 0.18 mg of PVP K30 and 9 mg of mannitol.
For Compound 3, non-coated or enteric coated gelatin capsules were individually filled with 90 mg of dry-milled Compound 3 (as obtained in Example 1i) together with 0.90 mg of sodium docusate, 0.09 mg of PVP K30 and 4.50 mg of mannitol.
40 mL of the 2% w/v methyl cellulose solution was added to a 250 mL conical flask together with 10 g of 2 mm glass beads, and vigorously stirred. Compound 1 (720 mg) was slowly added to the solution and the mixture was with continuously stirred for 1 h. The homogenate was transferred to separate flask and its pH recorded. The suspension formulation was prepared before administration to the animals.
Adult healthy male New Zealand white rabbits aged approximately 2 to 3 months old were used for experimentation after 7 days of acclimatization.
To dose the filled capsules, a soft plastic dosing tube was used. The filled capsule was inserted into the dosing tube so that the short end of the capsule protrudes slightly from the tip of the tube. The tip of the capsule was dipped in mineral oil to aid swallowing.
To dose the suspension, an infant feeding tube was used. The feeding tube was inserted through the mouth of the rabbit to the oesophagus and the stomach, and ascertained that it has not been placed in the trachea before dosing to the animals. The suspension of the Compound 1 was administered through the feeding tube. After the administration of the suspension, drinking water of approximately 2.0-2.5 mL was administered to flush out the contents in the feeding tube.
The animals were restrained in a rabbit restrainer and blood samples (400-500 μL/time point) were collected via the central ear artery at 0.16, 0.25, 0.50, 1.0, 2.0, 4.0, 6.0, 8.0, 24.0, 48.0 and 72 hours post-dosing. Collected blood specimens were centrifuged at 4000 or 6000 rpm, 4° C. for 10 minutes and plasma samples were separated and stored at −80° C. until analysis.
Concentrations of the analyte of Compound 1 in New Zealand white rabbits was determined using an API 3200 Q-trap LC-MS/MS system.
Chromatographic separation was achieved on Zorbax C18, 50×4.6 mm, 5 μm column with methanol-0.1% formic acid as mobile phase with gradient elution. The flow rate was set at 1.0 mL min^−1. Detection was accomplished by a triple-quadrupole tandem mass spectrometer in multiple-reaction monitoring (MRM) scanning via electrospray ionization source, applied in the positive mode. The optimised mass transition ion-pairs for quantitation were m/z 379.999→125.000 for the compound 1 and m/z 376.165→165.00 for the ISD (Haloperidol). Calibration plots were linear over the range of 11.062 to 20594.820 ng/mL.
The data of plasma concentration to respective time points for the analyte Compound 1 were used for the pharmacokinetic analysis. Pharmacokinetic analysis was performed using non-compartmental analysis (NCA) module of Phoenix WinNonlin 6.3 software to determine the following pharmacokinetic parameters: • Cmax • Tmax • AUC0-t • AUC0-∞ • T1/2 • MRT […]

[3] = after 1st milling (air jet mill)
[4] = after 2nd milling (air jet mill)
[5] = rabbit, 25 mg/kg, enteric coated capsule with MgO, 25 mg/kg b.w. oral single dose, rabbit plasma (Example 9)
[6] = rabbit, 25 mg/kg, enteric coated capsule with mannitol, 25 mg/kg b.w. oral single dose, rabbit plasma (Example 10)
[7] = rabbit, 53 mg/kg, enteric coated capsule with MgO, 53 mg/kg b.w. (equivalent to 50 mg/kg Compound 1) oral single dose, rabbit plasma (Example 11)
[8] = rabbit, 90 mg/kg, enteric coated capsule, 90 mg/kg b.w. oral single dose, rabbit plasma (Examples 5, 6, 7)
[9] = rabbit, 90 mg/kg, non-coated capsule, 90 mg/kg b.w. oral single dose, rabbit plasma (Examples 2, 3, 4)

Particle size distribution D10 [1, 3]: 0.508 μm
Particle size distribution D50 [1, 3]: 3.58 μm
Particle size distribution D90 [1, 3]: 11.5 μm
Particle size distribution D100 [1, 3]: 31.1 μm
Particle size distribution D10 [1, 4]: 0.414 μm
Particle size distribution D50 [1, 4]: 2.70 μm
Particle size distribution D90 [1, 4]: 8.29 μm
Particle size distribution D100 [1, 4]: 24.0 μm
Particle size distribution D10 ([1]; before milling): 1.11 μm
Particle size distribution D50 ([1]; before milling): 7.62 μm
Particle size distribution D90 ([1]; before milling): 31.7 μm
Particle size distribution D100 ([1]; before milling): 185 μm
Plasma concentration, mean ([2]; 0.00 h, enteric coated capsule, rabbit): 0 µg/mL
Plasma concentration, mean ([2]; 0.00 h, non-coated capsule, rabbit): 0 µg/mL
Plasma concentration, mean ([2]; 0.16 h, enteric coated capsule, rabbit): 0 µg/mL
Plasma concentration, mean ([2]; 0.16 h, non-coated capsule, rabbit): 0 µg/mL
Plasma concentration, mean ([2]; 0.25 h, enteric coated capsule, rabbit): 0 µg/mL
Plasma concentration, mean ([2]; 0.25 h, non-coated capsule, rabbit): 0.051798 µg/mL
Plasma concentration, mean ([2]; 0.50 h, enteric coated capsule, rabbit): 0 µg/mL
Plasma concentration, mean ([2]; 0.50 h, non-coated capsule, rabbit): 0.206386 µg/mL
Plasma concentration, mean ([2]; 1.00 h, enteric coated capsule, rabbit): 0.009027 µg/mL
Plasma concentration, mean ([2]; 1.00 h, non-coated capsule, rabbit): 0.594725 µg/mL
Plasma concentration, mean ([2]; 2.00 h, enteric coated capsule, rabbit): 0.013276 µg/mL
Plasma concentration, mean ([2]; 2.00 h, non-coated capsule, rabbit): 1.377183 µg/mL
Plasma concentration, mean ([2]; 4.00 h, enteric coated capsule, rabbit): 0.624216 µg/mL
Plasma concentration, mean ([2]; 4.00 h, non-coated capsule, rabbit): 15.776855 µg/mL
Plasma concentration, mean ([2]; 6.00 h, enteric coated capsule, rabbit): 11.866638 µg/mL
Plasma concentration, mean ([2]; 6.00 h, non-coated capsule, rabbit): 46.144063 µg/mL
Plasma concentration, mean ([2]; 8.00 h, enteric coated capsule, rabbit): 18.413782 µg/mL
Plasma concentration, mean ([2]; 8.00 h, non-coated capsule, rabbit): 71.215612 µg/mL
Plasma concentration, mean ([2]; 24.00 h, enteric coated capsule, rabbit): 99.879409 µg/mL
Plasma concentration, mean ([2]; 24.00 h, non-coated capsule, rabbit): 98.809233 µg/mL
Plasma concentration, mean ([2]; 48.00 h, enteric coated capsule, rabbit): 101.178612 µg/mL
Plasma concentration, mean ([2]; 48.00 h, non-coated capsule, rabbit): 93.029388 µg/mL
Plasma concentration, mean ([2]; 72.00 h, enteric coated capsule, rabbit): 90.966319 µg/mL
Plasma concentration, mean ([2]; 72.00 h, non-coated capsule, rabbit): 84.071553 µg/mL
improvement in systemic exposure compared with the milled free base active ingredient ([2]; dry milled, capsules, 90 mg/kg oral, rabbit): greatest improvements
increase in the systemic exposure compared to a standard suspension of the active ingredient (example 8) ([2]; dry milled, non-coated or enteric-coated capsules, 90 mg/kg oral, rabbit): up to six-fold
systemic exposure when formulated together with an alkaline excipient ([2]; enteric coated capsule with MgO, 53 mg/kg oral, rabbit (Example 11)): significant amount of systemic exposure
AUCextrap ([2]; enteric coated capsule, 90 mg/kg b.w. oral single dose, rabbit plasma (Examples 5, 6, 7)): 88.81 ± 3.497%
systemic exposure when formulated with an alkaline excipient in comparison with formulation in the absence of an alkaline excipient ([2]; enteric coated capsules, 25 mg/kg oral, rabbit, Example 9 (MgO) vs Example 10 (mannitol)): increase
Cmax [2, 5]: 49.6 ± 4.8 µg/mL
MRT last [2, 5]: 27.67 ± 0.11 h
Tmax [2, 5]: 24 h
Cmax [2, 6]: 47.4 ± 7.06 µg/mL
MRT last [2, 6]: 30 ± 1.73 h
Tmax [2, 6]: 32 ± 13.9 h
AUC(0-t) [2, 7]: 8930 ± 1190 µg·h/mL
Cmax [2, 7]: 153 ± 24.3 µg/mL
MRT last [2, 7]: 40.9 ± 1.43 h
AUC(0-inf) [2, 8]: 55700 ± 22700 µg·h/mL
AUC(0-t) [2, 8]: 5710 ± 1140 µg·h/mL
Cmax [2, 8]: 101 ± 17 µg/mL
MRT last [2, 8]: 43 ± 1.59 h
Tmax [2, 8]: 32 ± 13.9 h
half-life [2, 8]: 368 ± 109 h
AUC(0-inf) [2, 9]: 38100 ± 34700 µg·h/mL
AUC(0-t) [2, 9]: 5980 ± 2270 µg·h/mL
Cmax [2, 9]: 99 ± 34.6 µg/mL
MRT last [2, 9]: 38.8 ± 1.2 h
Tmax [2, 9]: 32 ± 13.9 h
half-life [2, 9]: 227 ± 140 h
AUCextrap ([2]; non-coated capsule, 90 mg/kg b.w. oral single dose, rabbit plasma (Examples 2, 3, 4)): 79.01 ± 8.87%
Compound: O=C(Nc1nc(=O)n(Cc2ccc(Cl)cc2)s1)c1ccc(Cl)cc1.[Na] [Compound 2, 4-chloro-N-[2-[(4-chlorophenyl)methyl]-3-oxo-1,2,4-thiadiazol-5-yl]benzamide sodium salt]
